Data: patent publication US20250215030A1, “STAT MODULATORS AND USES THEREOF” (Recludix Pharma, Inc., priority 2022, published 2025)
Read-outs that look alike come from different tables or passages of the source.

Biological target: T1, pSTAT3 (pY705-STAT3) (Homo sapiens, UniProt P40763)
T1 construct: host or cells: cryopreserved PBMC
Experiment: MSD-pSTAT-PBMC Assay (pSTAT3, IL-6 stimulated)
Format: cell-based
Method in brief: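 Human PBMCs (50,000 cells/well for STAT3, 25,000 for STAT6) treated with compound 3 h, then stimulated 10 min with 10 ng/mL IL-6 or 1 ng/mL IL-4. Lysate pSTAT3 (pY705) or pSTAT6 (pY641) measured by MSD sandwich electrochemiluminescence. Signal minus unstimulated, normalized to DMSO; IC50 by variable-slope nonlinear regression.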

[1] = PBMC, compound 3 hrs, then 10 ng/mL IL-6 for 10 min, MSD pY705-STAT3, read-out: pSTAT3

T1 sequence (P40763 whole entry): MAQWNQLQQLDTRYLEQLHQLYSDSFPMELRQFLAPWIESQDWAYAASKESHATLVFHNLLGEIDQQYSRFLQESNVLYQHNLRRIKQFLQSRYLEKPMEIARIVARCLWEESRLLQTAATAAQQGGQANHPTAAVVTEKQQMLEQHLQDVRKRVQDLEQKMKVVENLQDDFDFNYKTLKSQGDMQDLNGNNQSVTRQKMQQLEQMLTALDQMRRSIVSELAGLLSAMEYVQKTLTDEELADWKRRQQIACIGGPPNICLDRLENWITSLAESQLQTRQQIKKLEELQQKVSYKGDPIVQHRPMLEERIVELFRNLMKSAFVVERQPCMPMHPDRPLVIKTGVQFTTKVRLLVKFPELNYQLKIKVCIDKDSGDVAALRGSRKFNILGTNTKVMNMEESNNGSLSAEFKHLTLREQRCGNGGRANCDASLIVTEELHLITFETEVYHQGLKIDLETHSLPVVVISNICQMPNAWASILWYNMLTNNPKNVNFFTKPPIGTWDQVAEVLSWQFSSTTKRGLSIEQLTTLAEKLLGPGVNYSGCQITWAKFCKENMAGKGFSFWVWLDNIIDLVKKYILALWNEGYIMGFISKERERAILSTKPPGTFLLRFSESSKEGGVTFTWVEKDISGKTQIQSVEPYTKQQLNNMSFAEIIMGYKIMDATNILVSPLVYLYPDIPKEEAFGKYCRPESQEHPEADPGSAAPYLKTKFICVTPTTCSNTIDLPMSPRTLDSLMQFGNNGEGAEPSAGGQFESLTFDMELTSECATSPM

For CCCOC(=O)[C@H](C)N[P@@](=O)(Oc1ccccc1)[C@H](F)c1ccc2sc(C(=O)N[C@H]3C[C@H]4C[C@H]4C[C@H]4CC[C@@H](C(=O)N5CC(c6cnccc6N(C)C)C5)N4C3=O)cc2c1 [Compound 398, propyl((R)-((S)-(2-(((3S,6S,7aR,8aS,9aR)-3-(3-(4-(dimethylamino)pyridin-3-yl)azetidine-1-carbonyl)-5-oxodecahydro-1H-cyclopropa[d]pyrrolo[1,2-a]azocin-6-yl)carbamoyl)benzo[b]thiophen-5-yl)fluoromethyl)(phenoxy)phosphoryl)-L-ananinate], the IC50 [1] was less than 100 nM.
Molecule CCCOC(=O)[C@H](C)N[P@@](=O)(Oc1ccccc1)[C@H](F)c1ccc2sc(C(=O)N[C@H]3C[C@H]4C[C@H]4C[C@H]4CC[C@@H](C(=O)N5CC(c6cnccc6N(C)C)C5)N4C3=O)cc2c1 [Compound 399] has an IC50 [1] of less than 100 nM.
CCCOC(=O)[C@H](C)NP(=O)(Oc1ccccc1)C(F)c1ccc2sc(C(=O)N[C@H]3C[C@@H]4C[C@@H]4C[C@H]4CC[C@@H](C(=O)N5CC(c6cncnc6N6CCC6)C5)N4C3=O)cc2c1 (stereo partly drawn) [Compound 412, propyl(((S)-(2-(((3S,6S,7aS,8aR,9aR)-3-(3-(4-(azetidin-1-yl)pyrimidin-5-yl)azetidine-1-carbonyl)-5-oxodecahydro-1H-cyclopropa[d]pyrrolo[1,2-a]azocin-6-yl)carbamoyl)benzo[b]thiophen-5-yl)fluoromethyl)(phenoxy)phosphoryl)-L-alaninate] was tested, and the IC50 was less than 100 nM.
In the case of CCCOC(=O)[C@H](C)NP(=O)(Oc1ccccc1)[C@H](F)c1ccc2sc(C(=O)N[C@H]3C[C@@H]4C[C@@H]4C[C@H]4CC[C@@H](C(=O)N5CC(c6cnccc6N6CCOCC6)C5)N4C3=O)cc2c1 (stereo partly drawn) [Compound 413, propyl(((S)-fluoro(2-(((3S,6S,7aS,8aR,9aR)-3-(3-(4-morpholinopyridin-3-yl)azetidine-1-carbonyl)-5-oxodecahydro-1H-cyclopropa[d]pyrrolo[1,2-a]azocin-6-yl)carbamoyl)benzo[b]thiophen-5-yl)methyl)(phenoxy)phosphoryl)-L-alaninate], the IC50 is reported as less than 100 nM.
CCCOC(=O)[C@H](C)N[P@@](=O)(Oc1ccccc1)[C@@H](F)c1ccc2sc(C(=O)N[C@H]3C[C@@H]4C[C@@H]4C[C@H]4CC[C@@H](C(=O)N5CC(c6cnccc6N(C)C)C5)N4C3=O)cc2c1 [Compound 414, propyl((S)-((R)-(2-(((3S,6S,7aS,8aR,9aR)-3-(3-(4-(dimethylamino)pyridin-3-yl)azetidine-1-carbnyl)-5-oxodecahydro-1H-cyclopropa[d]pyrrolo[1,2-a]azocin-6-yl)carbamoyl)benzo[b]thiophen-5-yl)fluoromethyl)(phenoxy)phosphoryl)-L-alaninate] gave an IC50 [1] of less than 100 nM.
Molecule CCCOC(=O)[C@H](C)NP(=O)(Oc1ccccc1)[C@H](F)c1ccc2sc(C(=O)N[C@H]3C[C@@H]4C[C@@H]4C[C@H]4CC[C@@H](C(=O)N5CC(c6cnccc6N6CC[C@H]6COC)C5)N4C3=O)cc2c1 (stereo partly drawn) [Compound 416, propyl(((S)-fluoro(2-(((3S,6S,7aS,8aR,9aR)-3-(3-(4-((S)-2-(methoxymethyl)azetidin-1-yl)pyridin-3-yl)azetidine-1-carbonyl)-5-oxodecahydro-1H-cyclopropa[d]pyrrolo[1,2-a]azocin-6-yl)carbamoyl)benzo[b]thiophen-5-yl)methyl)(phenoxy)phosphoryl)-L-alaninate] has an IC50 of less than 100 nM.
With CCCOC(=O)[C@H](C)N[P@](=O)(Oc1ccccc1)C(F)c1ccc2sc(C(=O)N[C@H]3C[C@@H]4C[C@@H]4C[C@H]4CC[C@@H](C(=O)N5CC(c6cnccc6N(C)C)C5)N4C3=O)cc2c1 (stereo partly drawn) [Compound 418, propyl((R)-((S)-(2-(((3S,6S,7aS,8aR,9aR)-3-(3-(4-(dimethylamino)pyridin-3-yl)azetidine-1-carbonyl)-5-oxodecahydro-1H-cyclopropa[d]pyrrolo[1,2-a]azocin-6-yl)carbamoyl)benzo[b]thiophen-5-yl)fluoromethyl)(phenoxy)phosphoryl)-L-alaninate] the IC50 was less than 100 nM.
CCCOC(=O)[C@H](C)NP(=O)(Oc1ccccc1)C(F)c1ccc2sc(C(=O)N[C@H]3C[C@@H]4C[C@@H]4C[C@H]4CC[C@@H](C(=O)N5CC(c6cnccc6OCC)C5)N4C3=O)cc2c1 (stereo partly drawn) [Compound 423, propyl(((S)-(2-(((3S,6S,7aS,8aR,9aR)-3-(3-(4-ethoxypyridin-3-yl)azetidine-1-carbonyl)-5-oxodecahydro-1H-cyclopropa[d]pyrrolo[1,2-a]azocin-6-yl)carbamoyl)benzo[b]thiophen-5-yl)fluoromethyl)(phenoxy)phosphoryl)-L-alaninate] was tested, and the IC50 was less than 100 nM.
CCCOC(=O)[C@H](C)NP(=O)(Oc1ccccc1)C(F)c1ccc2sc(C(=O)N[C@H]3C[C@@H]4C[C@@H]4C[C@H]4CC[C@@H](C(=O)N5CC(c6cnccc6N6CCN(C)CC6)C5)N4C3=O)cc2c1 (stereo partly drawn) [Compound 424, propyl(((R)-fluoro(2-(((3S,6S,7aS,8aR,9aR)-3-(3-(4-(4-methylpiperazin-1-yl)pyridin-3-yl)azetidine-1-carbonyl)-5-oxodecahydro-1H-cyclopropa[d]pyrrolo[1,2-a]azocin-6-yl)carbamoyl)benzo[b]thiophen-5-yl)methyl)(phenoxy)phosphoryl)-L-alaninate] gave an IC50 of 100 to 1000 nM.
In the case of “propyl(((2-(((3S,6S,7aS,8aR,9aR)-3-((1R,5R)-2-acetyl-2,6-diazabicyclo[3.2.0]heptane-6-carbonyl)-5-oxodecahydro-1H-cyclopropa[d]pyrrolo[1,2-a]azocin-6-yl)carbamoyl)benzo[b]thiophen-5-yl)fluoromethyl)(phenoxy)phosphoryl)-L-alaninate [Compound 292]”, the IC50 [1] is reported as less than 100 nM.
With “propyl(((2-(((3S,6S,7aS,8aR,9aR)-8a-methyl-5-oxo-3-(3-(pyridin-3-yl)azetidine-1-carbonyl)decahydro-1H-cyclopropa[d]pyrrolo[1,2-a]azocin-6-yl)carbamoyl)benzo[b]thiophen-5-yl)methyl)(phenoxy)phosphoryl)-L-alaninate [Compound 233]” the IC50 [1] was less than 100 nM.
“propyl(((2-(((3S,6S,8aR,9aS,9bR)-8a-methyl-5-oxo-3-(3-(pyridin-3-yl)azetidine-1-carbonyl)decahydro-1H-cyclopropa[c]pyrrolo[1,2-a]azocin-6-yl)carbamoyl)benzo[b]thiophen-5-yl)methyl)(phenoxy)phosphoryl)-L-alaninate [Compound 232]” showed an IC50 [1] of less than 100 nM.
